# Source: US6423342B1, “Process for the preparation of a solid pharmaceutical dosage form” (R. P. Scherer Corporation, priority 1995, dated 2002)
# Structures can show the parent of a compound that is named as a salt.
# Columns and labels:
# Format in all cases: physicochemical
# [1] = Effect of pH modification (citric acid level) on stability of selegiline hydrochloride fast-dispersing dosage forms stored at 40° C./80% relative humidity; parameters: unit not given beside the values
# Procedure: Gelatin (720 g) and mannitol (540 g) were dispersed in a portion of purified water (15.73 kg) by mixing thoroughly in the bowl of a vacuum mixer. The remaining water (1.5 litres) was added under vacuum while mixing using an anchor stirrer. The mix was then heated to 40° C.±2° C. and homogenized for ten minutes. The mix was cooled down to room temperature. When cooled, a 4500 g portion of the mix was removed into a stainless steel vessel and glycine (360 g), aspartame (90 g), grapefruit flavor (54 g), Opatint yellow (54 g) and citric acid (90 g) were then added sequentially to this portion while homogenizing using a bench top homogenizer. The remainder of the mix was transferred into a second stainless steel vessel. Selegiline hydrochloride (360 g) was then added to the mix in the second vessel and the mix homogenized for ten minutes using a bench top mixer to dissolve the drug. Once dispersion of the coloring agent was complete, the portion of the mix removed to the first vessel was returned to the mixer bowl together with the homogenized mix from the second vessel. The combined mixes were then mixed for at least 20 minutes. The bulk dispersion was then homogenized to ensure that mixing was complete.
# (§1) 250 mg of the selegiline hydrochloride 2.0% dispersion formed in (a) above was dosed into each one of a series of pre-formed blister pockets having a pocket diameter of 12-mm. The blister laminate comprised 200 μm PVC/30 μm PE/PVDC 90 g per square metre. The product was frozen immediately in a liquid nitrogen freeze tunnel. The frozen product was then stored below −20° C. for a minimum of 24 hours prior to freeze-drying in a freeze drier using a drying temperature of +20° C. and a chamber pressure of 0.5 mbar. The freeze-dried units were then inspected for the presence of critical defects and the remainder of the batch sealed with lidding foil consisting of a paper/foil laminate (20 μm aluminium). Each blister was then coded with a batch number and over-wrapped in a preformed sachet by placing the blister in the sachet and sealing the open end of the sachet completely. Each sachet was then labeled with the product name, batch number, date of manufacture and suppliers name.
# A series of dosage forms were manufactured as described in Example 1 but the quantity of citric acid used was varied. The dosage forms were then stored at 40° C./80% relative humidity for up to 7 weeks and the quantity of selegiline hydrochloride in these dosage forms was assayed at regular intervals.
# [2] = Solution pH of the dispersion at varied citric acid concentration
# [3] = Physical properties of the dosage form at varied citric acid level; settings: citric acid levels higher than 0.5%; causing, for instance, cracking and base melting
# Text: It can be seen that a minimum level of 0.5% citric acid is required to inhibit this loss of selegiline.
# [4] = Effect of storage in frozen state prior to drying on selegiline HCl assay of fast-dispersing dosage forms
# Procedure: as §1
# Two batches of selegiline fast-dispersing dosage forms manufactured as described in Example I were stored at different temperatures in the frozen state prior to drying.
compound,measurement,setting,value
"C#CCN(C)C(C)Cc1ccccc1 (single isomer, unassigned; (-)) [selegiline hydrochloride, (−)-N,α-dimethyl-N-2-propynylphenethylamine]",quantity of selegiline hydrochloride in dosage form,"[1]; citric acid 0 % w/w, solution pH 5.38, 1 week at 40° C./80% relative humidity",3.86
same,quantity of selegiline hydrochloride in dosage form,"[1]; citric acid 0 % w/w, solution pH 5.38, 2 week at 40° C./80% relative humidity",3.31
same,quantity of selegiline hydrochloride in dosage form,"[1]; citric acid 0 % w/w, solution pH 5.38, 4 week at 40° C./80% relative humidity",3.32
same,quantity of selegiline hydrochloride in dosage form,"[1]; citric acid 0 % w/w, solution pH 5.38, Time = 0",4.79
same,quantity of selegiline hydrochloride in dosage form,"[1]; citric acid 0.25 % w/w, solution pH 4.21, 1 week at 40° C./80% relative humidity",4.70
same,quantity of selegiline hydrochloride in dosage form,"[1]; citric acid 0.25 % w/w, solution pH 4.21, 2 week at 40° C./80% relative humidity",4.67
same,quantity of selegiline hydrochloride in dosage form,"[1]; citric acid 0.25 % w/w, solution pH 4.21, 4 week at 40° C./80% relative humidity",4.74
same,quantity of selegiline hydrochloride in dosage form,"[1]; citric acid 0.25 % w/w, solution pH 4.21, 7 week at 40° C./80% relative humidity",4.65
same,quantity of selegiline hydrochloride in dosage form,"[1]; citric acid 0.25 % w/w, solution pH 4.21, Time = 0",4.95
same,quantity of selegiline hydrochloride in dosage form,"[1]; citric acid 0.50 % w/w, solution pH 3.82, 1 week at 40° C./80% relative humidity",4.98
same,quantity of selegiline hydrochloride in dosage form,"[1]; citric acid 0.50 % w/w, solution pH 3.82, 2 week at 40° C./80% relative humidity",4.98
same,quantity of selegiline hydrochloride in dosage form,"[1]; citric acid 0.50 % w/w, solution pH 3.82, 4 week at 40° C./80% relative humidity",4.98
same,quantity of selegiline hydrochloride in dosage form,"[1]; citric acid 0.50 % w/w, solution pH 3.82, 7 week at 40° C./80% relative humidity",4.96
same,quantity of selegiline hydrochloride in dosage form,"[1]; citric acid 0.50 % w/w, solution pH 3.82, Time = 0",5.05
same,quantity of selegiline hydrochloride in dosage form,"[1]; citric acid 1.0 % w/w, solution pH 3.45, 1 week at 40° C./80% relative humidity",5.03
same,quantity of selegiline hydrochloride in dosage form,"[1]; citric acid 1.0 % w/w, solution pH 3.45, 2 week at 40° C./80% relative humidity",5.04
same,quantity of selegiline hydrochloride in dosage form,"[1]; citric acid 1.0 % w/w, solution pH 3.45, 4 week at 40° C./80% relative humidity",5.05
same,quantity of selegiline hydrochloride in dosage form,"[1]; citric acid 1.0 % w/w, solution pH 3.45, 7 week at 40° C./80% relative humidity",5.00
same,quantity of selegiline hydrochloride in dosage form,"[1]; citric acid 1.0 % w/w, solution pH 3.45, Time = 0",5.07
same,quantity of selegiline hydrochloride in dosage form,"[1]; citric acid 2.0 % w/w, solution pH 3.11, 1 week at 40° C./80% relative humidity",4.99
same,quantity of selegiline hydrochloride in dosage form,"[1]; citric acid 2.0 % w/w, solution pH 3.11, 2 week at 40° C./80% relative humidity",5.01
same,quantity of selegiline hydrochloride in dosage form,"[1]; citric acid 2.0 % w/w, solution pH 3.11, 4 week at 40° C./80% relative humidity",5.02
same,quantity of selegiline hydrochloride in dosage form,"[1]; citric acid 2.0 % w/w, solution pH 3.11, 7 week at 40° C./80% relative humidity",4.96
same,quantity of selegiline hydrochloride in dosage form,"[1]; citric acid 2.0 % w/w, solution pH 3.11, Time = 0",5.04
same,Solution pH,[2]; Conc. of citric acid 0 % w/w,5.38
same,Solution pH,[2]; Conc. of citric acid 0.25 % w/w,4.21
same,Solution pH,[2]; Conc. of citric acid 0.50 % w/w,3.82
same,Solution pH,[2]; Conc. of citric acid 1.0 % w/w,3.45
same,Solution pH,[2]; Conc. of citric acid 2.0 % w/w,3.11
same,effect on the physical properties of the dosage form,[3],deleterious effect
same,Assay Selegiline HCI,"[4]; Frozen storage temperature −20 ° C. prior to drying, 2 week",4.97 mg
same,Assay Selegiline HCI,"[4]; Frozen storage temperature −20 ° C. prior to drying, 4 week",4.98 mg
same,Assay Selegiline HCI,"[4]; Frozen storage temperature −20 ° C. prior to drying, Time = 0",5.01 mg
same,Assay Selegiline HCI,"[4]; Frozen storage temperature −25 ° C. prior to drying, 1 week",4.85 mg
same,Assay Selegiline HCI,"[4]; Frozen storage temperature −25 ° C. prior to drying, 2 week",4.79 mg
same,Assay Selegiline HCI,"[4]; Frozen storage temperature −25 ° C. prior to drying, 4 week",4.74 mg
same,Assay Selegiline HCI,"[4]; Frozen storage temperature −25 ° C. prior to drying, Time = 0",4.87 mg
